# Results taken from BindingDB's records for doi:10.1002/cbic.201100587 (2012).
# Biological target: Glutamine--fructose-6-phosphate transaminase (isomerizing) (Saccharomyces cerevisiae (strain YJM789), UniProt A6ZZL3)
# Assay: Inhibition Assay
# Description: The inhibition assay was followed under standard conditions with saturating concentrations of both substrates to determine the IC50 values.
# Glutamine--fructose-6-phosphate transaminase (isomerizing), sequence (A6ZZL3 whole entry): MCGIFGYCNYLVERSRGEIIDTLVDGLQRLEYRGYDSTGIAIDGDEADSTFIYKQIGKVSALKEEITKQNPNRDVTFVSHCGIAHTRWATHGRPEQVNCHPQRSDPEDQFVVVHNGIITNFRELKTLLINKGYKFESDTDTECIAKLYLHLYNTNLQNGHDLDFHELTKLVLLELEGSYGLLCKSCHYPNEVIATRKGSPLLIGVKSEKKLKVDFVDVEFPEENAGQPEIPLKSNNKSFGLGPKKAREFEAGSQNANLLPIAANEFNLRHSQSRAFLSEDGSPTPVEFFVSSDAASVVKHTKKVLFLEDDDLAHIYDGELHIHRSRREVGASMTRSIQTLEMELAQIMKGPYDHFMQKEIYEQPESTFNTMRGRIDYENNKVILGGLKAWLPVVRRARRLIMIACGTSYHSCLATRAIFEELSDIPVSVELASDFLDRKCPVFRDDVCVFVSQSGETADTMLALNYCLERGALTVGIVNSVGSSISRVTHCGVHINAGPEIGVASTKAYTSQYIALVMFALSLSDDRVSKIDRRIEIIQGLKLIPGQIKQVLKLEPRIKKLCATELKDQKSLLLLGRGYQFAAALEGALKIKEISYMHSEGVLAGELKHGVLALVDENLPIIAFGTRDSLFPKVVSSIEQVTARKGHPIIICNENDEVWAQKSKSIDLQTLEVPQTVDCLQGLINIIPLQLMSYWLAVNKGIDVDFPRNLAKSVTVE
IC50 [mM],Ki [mM],Structure (SMILES)
0.66,0.45,"N[C@@H](CNC(=O)[C@@H]1O[C@H]1C(=O)c1ccccc1)C(=O)O [N3-Oxoacyl derivative, 1]"
7.35,19.4,"CC(=O)[C@@H]1O[C@H]1C(=O)NC[C@H](N)C(=O)O [N3-Oxoacyl derivative, 2]"
0.27,0.0565,"N[C@@H](CNC(=O)/C=C/C(=O)c1ccccc1)C(=O)O [N3-Oxoacyl derivative, 3]"
5.6,15.2,"CC(=O)C=CC(=O)NC[C@H](N)C(=O)O [N3-Oxoacyl derivative, 4]"
